Source: patent US12319655B2, “RAF kinase inhibitors and methods of use thereof” (Deciphera Pharmaceuticals, LLC, priority 2021, dated 2025)

Experiments:
[1] = molecular target: B-Raf kinase (SEQ. ID NO: 2) (Homo sapiens (Human), UniProt P15056); experiment: Biochemical Assay for B-Raf (1); conditions: Table J, assay version (1); read-out: BRAF (1) IC50
How it was run: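 Continuous PK/LDH-coupled NADH oxidation assay, A340 read for 6 h at 30° C., with 0.13 nM B-Raf, 30.1 nM MEK substrate and 1 mM ATP in Tris pH 7.5, MgCl2, DTT, detergents, 1% DMSO. Rate taken from 4–5 h window; percent inhibition vs no-compound and known-inhibitor controls; four-parameter fit gives IC50.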

[2] = molecular target: B-Raf (V600E) (SEQ. ID NO: 4) kinase (Homo sapiens (Human), UniProt P15056, V600E); experiment: Biochemical Assay for B-Raf (V600E) (1); conditions: Table J, BRAF V600E, assay version (1); read-out: BRAF VE (1) IC50
B-Raf (V600E) (SEQ. ID NO: 4) kinase, sequence (P15056 416-766 V600E): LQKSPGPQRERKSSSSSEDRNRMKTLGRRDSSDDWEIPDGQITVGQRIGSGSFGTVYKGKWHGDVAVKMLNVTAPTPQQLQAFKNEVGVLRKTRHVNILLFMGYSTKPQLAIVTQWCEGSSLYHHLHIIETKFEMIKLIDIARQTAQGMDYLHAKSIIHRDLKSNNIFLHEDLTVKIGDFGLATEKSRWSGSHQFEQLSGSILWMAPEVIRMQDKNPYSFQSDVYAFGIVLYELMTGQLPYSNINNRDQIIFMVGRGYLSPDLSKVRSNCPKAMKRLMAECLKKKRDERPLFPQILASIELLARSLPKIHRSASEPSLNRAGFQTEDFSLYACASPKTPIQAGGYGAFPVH
How it was run: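 Coupled pyruvate kinase/lactate dehydrogenase assay: 0.03 nM B-Raf V600E, 30.1 nM MEK, 1 mM ATP, pH 7.5 Tris/MgCl2 buffer, 1% DMSO. NADH oxidation followed at 340 nm for 6 h at 30 °C; rate from 3–4 h converted to percent inhibition, IC50 by four-parameter fit.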

[3] = test system: Miapaca-2 cells; experiment: MiaPaca-2 Cell Proliferation Assay (1); type: cell-based; conditions: Homo sapiens, MIA PaCa-2, single agent, read-out: MiaPaca2 (1) IC50
How it was run: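 Resazurin was added after compound exposure and incubated 5-6 h, then fluorescence read at 540 nm excitation and 600 nm emission to give IC50.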

[4] = test system: H2405 cells; experiment: H2405 Cell Proliferation Assay (1); type: cell-based; conditions: Homo sapiens, NCI-H2405
How it was run: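 Viability was read by resazurin reduction (ex 540 nm, em 600 nm; 5-6 h with 40 μL of 440 μM stock) after 67-72 h compound exposure at 37 °C.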

B-Raf kinase (SEQ. ID NO: 2), sequence (P15056 416-766): as the sequence (P15056 416-766 V600E) above, with E185V counted along it

SMILES	IC50 [1]	IC50 [2]	IC50 [3]	IC50 [4]
COC(=O)Nc1cc(-c2cnnc(-c3cc(NC(=O)c4ccnc(C(C)(C)C#N)c4)ccc3C)c2)ccn1 [Example 305]	≤ 100 nM	≤ 100 nM	1000 to 10000 nM	100 to 500 nM
COC(=O)Nc1cc(-c2cnnc(-c3cc(NC(=O)c4ccnc(C(C)(C)C#N)c4)cnc3C)c2)ccn1 [Example 306]	100 to 500 nM	100 to 500 nM	1000 to 10000 nM	1000 to 10000 nM
Cc1cc(F)c(NC(=O)c2ccnc(C(F)F)c2)cc1-c1ccnc(-c2ccnc(NC(=O)C3CC3)c2)c1 [Example 307]	≤ 100 nM	≤ 100 nM	1000 to 10000 nM	≤ 100 nM
COC(=O)Nc1cc(-c2cc(-c3cc(NC(=O)c4ccnc(C(C)(C)C#N)c4)c(F)cc3C)ccn2)ccn1 [Example 308]	≤ 100 nM	≤ 100 nM	1000 to 10000 nM	≤ 100 nM
CNC(=O)c1cc(-c2cnnc(-c3cc(NC(=O)c4ccnc(C(C)(C)F)c4)cnc3C)c2)ccn1 [Example 309]	1000 to 10000 nM	100 to 500 nM	1000 to 10000 nM	1000 to 10000 nM
Cc1ncc(NC(=O)c2ccnc(C(C)(C)F)c2)cc1-c1cc(-c2ccnc(NC(=O)C3CC3)c2)cnn1 [Example 310]	≤ 100 nM	≤ 100 nM	1000 to 10000 nM	100 to 500 nM
COC(=O)Nc1cc(-c2cc(-c3cc(NC(=O)c4ccnc(C(F)(F)F)c4)cnc3C)ccn2)ccn1 [Example 312]	≤ 100 nM	500 to 1000 nM	1000 to 10000 nM	100 to 500 nM
Cc1ncc(NC(=O)C2CCOC(C)(C)C2)cc1-c1cccc(-c2cc(NC(=O)C3CC3)ncn2)c1 (centres unmarked) [Example 348]	100 to 500 nM	≤ 100 nM	1000 to 10000 nM	1000 to 10000 nM
